Each compound was assayed on KM12 cells (assay: Cell viability assay (CellTiter-Glo) in KM12 cells). Conditions: Homo sapiens, 72 h; Table 2; KM12 cell viability, CellTiter-Glo, 3 days; read-out: IC50.
Type: cell-based
For Cc1ncsc1-c1ccc(CNC(=O)[C@@H]2C[C@@H](O)CN2C(=O)[C@@H](NC(=O)CCOCCOCCC(=O)N2CCN(c3cccc(-c4cnc5ccc(N6CCC[C@@H]6c6cccc(F)c6)nn45)n3)CC2)C(C)(C)C)cc1 [CPD-020, (2S,4R)-1-((S)-2-(3-(2-(3-(4-(6-(6-((R)-2-(3-Fluorophenyl)pyrrolidin-1-yl)imidazo[1,2-b]pyridazin-3-yl)pyridin-2-yl)piperazin-1-yl)-3-oxopropoxy)ethoxy)propanamido)-3,3-dimethylbutanoyl)-4-hydroxy-N-(4-(4-methylthiazol-5-yl)benzyl)pyrrolidine-2-carboxamide], the IC50 was 200 nM. O=C1CCC(N2C(=O)c3cccc(NCCOCCOCCOCCOCCC(=O)N4CCN(c5cccc(-c6cnc7ccc(N8CCC[C@@H]8c8cccc(F)c8)nn67)n5)CC4)c3C2=O)C(=O)N1 (stereo partly drawn) [CPD-021, 2-(2,6-Dioxopiperidin-3-yl)-4-((15-(4-(6-(6-((R)-2-(3-fluorophenyl)pyrrolidin-1-yl)imidazo[1,2-b]pyridazin-3-yl)pyridin-2-yl)piperazin-1-yl)-15-oxo-3,6,9,12-tetraoxapentadecyl)amino)isoindoline-1,3-dione] gave an IC50 of 27.4 nM. With Cc1ncsc1-c1ccc(CNC(=O)[C@@H]2C[C@@H](O)CN2C(=O)[C@@H](NC(=O)CCCCCCCCCC(=O)N2CCN(c3cccc(-c4cnc5ccc(N6CCC[C@@H]6c6cccc(F)c6)nn45)n3)CC2)C(C)(C)C)cc1 [CPD-022, (2S,4R)-1-((S)-2-(11-(4-(6-(6-((R)-2-(3-Fluorophenyl)pyrrolidin-1-yl)imidazo[1,2-b]pyridazin-3-yl)pyridin-2-yl)piperazin-1-yl)-11-oxoundecanamido)-3,3-dimethylbutanoyl)-4-hydroxy-N-(4-(4-methylthiazol-5-yl)benzyl)pyrrolidine-2-carboxamide] the IC50 was 100 nM. Compound O=C1CCC(N2C(=O)c3cccc(NCC(=O)N4CCN(c5cccc(-c6cnc7ccc(N8CCC[C@@H]8c8cccc(F)c8)nn67)n5)CC4)c3C2=O)C(=O)N1 (stereo partly drawn) [CPD-023, 2-(2,6-Dioxopiperidin-3-yl)-4-((2-(4-(6-(6-((R)-2-(3-fluorophenyl)pyrrolidin-1-yl)imidazo[1,2-b]pyridazin-3-yl)pyridin-2-yl)piperazin-1-yl)-2-oxoethyl)amino)isoindoline-1,3-dione] has an IC50 of 14.9 nM. O=C1CCC(N2C(=O)c3cccc(NCCCCCCCC(=O)N4CCN(c5cccc(-c6cnc7ccc(N8CCC[C@@H]8c8cccc(F)c8)nn67)n5)CC4)c3C2=O)C(=O)N1 (stereo partly drawn) [CPD-024, 2-(2,6-Dioxopiperidin-3-yl)-4-((8-(4-(6-(6-((R)-2-(3-fluorophenyl)pyrrolidin-1-yl)imidazo[1,2-b]pyridazin-3-yl)pyridin-2-yl)piperazin-1-yl)-8-oxooctyl)amino)isoindoline-1,3-dione] was tested, and the IC50 was 10 nM. With O=C1CCC(N2C(=O)c3cccc(NCCOCCOCCOCCOCCOCCC(=O)N4CCN(c5cccc(-c6cnc7ccc(N8CCC[C@@H]8c8cccc(F)c8)nn67)n5)CC4)c3C2=O)C(=O)N1 (stereo partly drawn) [CPD-025, 2-(2,6-Dioxopiperidin-3-yl)-4-((18-(4-(6-(6-((R)-2-(3-fluorophenyl)pyrrolidin-1-yl)imidazo[1,2-b]pyridazin-3-yl)pyridin-2-yl)piperazin-1-yl)-18-oxo-3,6,9,12,15-pentaoxaoctadecyl)amino)isoindoline-1,3-dione] the IC50 was 16.7 nM. With O=C1CCC(N2C(=O)c3cccc(NCCC(=O)N4CCN(c5cccc(-c6cnc7ccc(N8CCC[C@@H]8c8cccc(F)c8)nn67)n5)CC4)c3C2=O)C(=O)N1 (stereo partly drawn) [CPD-026, 2-(2,6-Dioxopiperidin-3-yl)-4-((3-(4-(6-(6-((R)-2-(3-fluorophenyl)pyrrolidin-1-yl)imidazo[1,2-b]pyridazin-3-yl)pyridin-2-yl)piperazin-1-yl)-3-oxopropyl)amino)isoindoline-1,3-dione] the IC50 was 82.3 nM. O=C1CCC(N2C(=O)c3cccc(NCCOCCOCCC(=O)N4CCN(c5cccc(-c6cnc7ccc(N8CCC[C@@H]8c8cccc(F)c8)nn67)n5)CC4)c3C2=O)C(=O)N1 (stereo partly drawn) [CPD-028, 2-(2,6-Dioxopiperidin-3-yl)-4-((2-(2-(3-(4-(6-(6-((R)-2-(3-fluorophenyl)pyrrolidin-1-yl)imidazo[1,2-b]pyridazin-3-yl)pyridin-2-yl)piperazin-1-yl)-3-oxopropoxy)ethoxy)ethyl)amino)isoindoline-1,3-dione] was tested, and the IC50 was 4.3 nM. Cc1ncsc1-c1ccc(CNC(=O)[C@@H]2C[C@@H](O)CN2C(=O)[C@@H](NC(=O)CCCCCCC(=O)N2CCN(c3cccc(-c4cnc5ccc(N6CCC[C@@H]6c6cccc(F)c6)nn45)n3)CC2)C(C)(C)C)cc1 [CPD-029, (2S,4R)-1-((S)-2-(8-(4-(6-(6-((R)-2-(3-Fluorophenyl)pyrrolidin-1-yl)imidazo[1,2-b]pyridazin-3-yl)pyridin-2-yl)piperazin-1-yl)-8-oxooctanamido)-3,3-dimethylbutanoyl)-4-hydroxy-N-(4-(4-methylthiazol-5-yl)benzyl)pyrrolidine-2-carboxamide] was tested, and the IC50 was 74 nM. For O=C1CCC(N2C(=O)c3cccc(NCCOCCC(=O)N4CCN(c5ccc(C(=O)Nc6n[nH]c7ccc(Cc8cc(F)cc(F)c8)cc67)c(NC6CCOCC6)c5)CC4)c3C2=O)C(=O)N1 (centres unmarked) [CPD-030, N-(5-(3,5-Difluorobenzyl)-1H-indazol-3-yl)-4-(4-(3-(2-((2-(2,6-dioxopiperidin-3-yl)-1,3-dioxoisoindolin-4-yl)amino)ethoxy)propanoyl)piperazin-1-yl)-2-((tetrahydro-2H-pyran-4-yl)amino)benzamide], the IC50 was 20.5 nM. O=C1CCC(N2C(=O)c3cccc(NCCOCCOCCOCCOCCC(=O)N4CCN(c5ccc(C(=O)Nc6n[nH]c7ccc(Cc8cc(F)cc(F)c8)cc67)c(NC6CCOCC6)c5)CC4)c3C2=O)C(=O)N1 (centres unmarked) [CPD-031, N-(5-(3,5-Difluorobenzyl)-1H-indazol-3-yl)-4-(4-(1-((2-(2,6-dioxopiperidin-3-yl)-1,3-dioxoisoindolin-4-yl)amino)-3,6,9,12-tetraoxapentadecan-15-oyl)piperazin-1-yl)-2-((tetrahydro-2H-pyran-4-yl)amino)benzamide] was tested, and the IC50 was 68.5 nM. In the case of O=C1CCC(N2C(=O)c3cccc(NCCOCCOCCC(=O)N4CCN(c5ccc(C(=O)Nc6n[nH]c7ccc(Cc8cc(F)cc(F)c8)cc67)c(NC6CCOCC6)c5)CC4)c3C2=O)C(=O)N1 (centres unmarked) [CPD-032, N-(5-(3,5-Difluorobenzyl)-1H-indazol-3-yl)-4-(4-(3-(2-(2-((2-(2,6-dioxopiperidin-3-yl)-1,3-dioxoisoindolin-4-yl)amino)ethoxy)ethoxy)propanoyl)piperazin-1-yl)-2-((tetrahydro-2H-pyran-4-yl)amino)benzamide], the IC50 is reported as 5.4 nM. Work on Cc1ncsc1-c1ccc(CNC(=O)[C@@H]2C[C@@H](O)CN2C(=O)[C@@H](NC(=O)CCCCCCC(=O)N2CCN(c3ccc(C(=O)Nc4n[nH]c5ccc(Cc6cc(F)cc(F)c6)cc45)c(NC4CCOCC4)c3)CC2)C(C)(C)C)cc1 [CPD-033, (2S,4R)-1-((S)-2-(8-(4-(4-((5-(3,5-difluorobenzyl)-1H-indazol-3-yl)carbamoyl)-3-((tetrahydro-2H-pyran-4-yl)amino)phenyl)piperazin-1-yl)-8-oxooctanamido)-3,3-dimethylbutanoyl)-4-hydroxy-N-(4-(4-methylthiazol-5-yl)benzyl)pyrrolidine-2-carboxamide] yielded an IC50 of 100 nM. Cc1ncsc1-c1ccc(CNC(=O)[C@@H]2C[C@@H](O)CN2C(=O)[C@@H](NC(=O)CCCCCCCCC(=O)N2CCN(c3ccc(C(=O)Nc4n[nH]c5ccc(Cc6cc(F)cc(F)c6)cc45)c(NC4CCOCC4)c3)CC2)C(C)(C)C)cc1 [CPD-034, (2S,4R)-1-((S)-2-(10-(4-(4-((5-(3,5-Difluorobenzyl)-1H-indazol-3-yl)carbamoyl)-3-((tetrahydro-2H-pyran-4-yl)amino)phenyl)piperazin-1-yl)-10-oxodecanamido)-3,3-dimethylbutanoyl)-4-hydroxy-N-(4-(4-methylthiazol-5-yl)benzyl)pyrrolidine-2-carboxamide] was tested, and the IC50 was 300 nM. Cc1ncsc1-c1ccc(CNC(=O)[C@@H]2C[C@@H](O)CN2C(=O)[C@@H](NC(=O)CCCCCCCCCC(=O)N2CCN(c3ccc(C(=O)Nc4n[nH]c5ccc(Cc6cc(F)cc(F)c6)cc45)c(NC4CCOCC4)c3)CC2)C(C)(C)C)cc1 [CPD-035, (2S,4R)-1-((S)-2-(11-(4-(4-((5-(3,5-Difluorobenzyl)-1H-indazol-3-yl)carbamoyl)-3-((tetrahydro-2H-pyran-4-yl)amino)phenyl)piperazin-1-yl)-11-oxoundecanamido)-3,3-dimethylbutanoyl)-4-hydroxy-N-(4-(4-methylthiazol-5-yl)benzyl)pyrrolidine-2-carboxamide] was tested, and the IC50 was 300 nM. Cc1ncsc1-c1ccc(CNC(=O)[C@@H]2C[C@@H](O)CN2C(=O)[C@@H](NC(=O)CCCC(=O)N2CCN(c3ccc(C(=O)Nc4n[nH]c5ccc(Cc6cc(F)cc(F)c6)cc45)c(NC4CCOCC4)c3)CC2)C(C)(C)C)cc1 [CPD-036, (2S,4R)-1-((S)-2-(5-(4-(4-((5-(3,5-Difluorobenzyl)-1H-indazol-3-yl)carbamoyl)-3-((tetrahydro-2H-pyran-4-yl)amino)phenyl)piperazin-1-yl)-5-oxopentanamido)-3,3-dimethylbutanoyl)-4-hydroxy-N-(4-(4-methylthiazol-5-yl)benzyl)pyrrolidine-2-carboxamide] showed an IC50 of 300 nM. With Cc1ncsc1-c1ccc(CNC(=O)[C@@H]2C[C@@H](O)CN2C(=O)[C@@H](NC(=O)CCCCCCCC(=O)N2CCN(c3ccc(C(=O)Nc4n[nH]c5ccc(Cc6cc(F)cc(F)c6)cc45)c(NC4CCOCC4)c3)CC2)C(C)(C)C)cc1 [CPD-037, (2S,4R)-1-((S)-2-(9-(4-(4-((5-(3,5-Difluorobenzyl)-1H-indazol-3-yl)carbamoyl)-3-((tetrahydro-2H-pyran-4-yl)amino)phenyl)piperazin-1-yl)-9-oxononanamido)-3,3-dimethylbutanoyl)-4-hydroxy-N-(4-(4-methylthiazol-5-yl)benzyl)pyrrolidine-2-carboxamide] the IC50 was 150 nM.

Source: patent publication US12065442B2, “Tropomyosin receptor kinase (TRK) degradation compounds and methods of use” (Cullgen (Shanghai), Inc., priority 2018, dated 2024)
